Measurements published in patent US6903135B2, “Methods and products related to 16-HETE analogs” (Board of Regents, The University of Texas System, priority 1998, dated 2005).
Marks after values point to notes of the source that are not given here.

Assays:
Type in all cases: cell-based
[1] = test system: neutrophils in diluted human blood; assay: fMLP-induced neutrophil aggregation in diluted human blood; details: for Aggregation (percent of inhibition from HETE untreated cells): 1 µM compound, N = 4; for inhibition of neutrophil aggregation: no concentration given
Method: (§1) Stimulated neutrophil aggregation and oxygen free radical release were examined in whole human blood using a whole-blood aggregometer-chemiluminometer (Chronolog, Haverton, Pa.) as described in Bednar et al. J. Thromb. Thrombol. 1, 179-185 (1995). Briefly, blood samples containing heparin (1 U/ml) as the anticoagulant were diluted in HBSS in proportion 1 to 9. Diluted blood aliquots (1 ml) were stirred (400 rpm) in a prewarmed (37° C.) siliconized cuvette containing cytochalasin b (5 μg/ml) and luminol (in 8 μl DMSO, 500 μM final concentration) and the test HETE (concentration 0.01 to 10 μM) for 10 min. Neutrophils were stimulated with a submaximal dose of fMLP (5×10^−7M final concentration). The aggregation and chemiluminescence were simultaneously measured as changes of impedance and luminescence, respectively. The fMLP-induced chemiluminescence was calculated as the peak height of the reaction.
The methods were performed as described above in Example 3.

[2] = test system: neutrophils in diluted human blood; assay: fMLP-stimulated oxygen free radical release (luminol chemiluminescence) in diluted human blood; details: for OFR Release (percent of inhibition from HETE untreated cells): 1 mM [sic] HETE, fMLP 5×10^−7 M, chemiluminescence, N = 3 to 4
Method: as §1, with “Diluted blood aliquots (1 ml) were stirred (400 rpm) in a prewarmed (37° C.) siliconized cuvette containing cytochalasin b (5 μg/ml) and luminol (in 8 μl DMSO, 500 μM final concentration) and the test HETE (concentration 0.01 to 10 μM) for 10 min.” left out

[3] = test system: platelets; assay: ADP-induced platelet aggregation in diluted whole blood; details: 1 μM, ten minute incubation, ADP 5 μM, n=3, mean±sem
Excerpt: (§2) Platelet aggregation was examined in diluted whole blood using a Chronolog whole blood aggregometer (Havertown, Pa.) as previously described (Bednar, M. M.; Dooley, R. H.; Zamani, M.; Howard, D. B.; and Gross, C. E. Neutrophil and platelet activity and quantification following delayed t-PA therapy in a rabbit model of thromboembolic stroke. J. Thromb. Thrombol. 1:179-185 (1995). Briefly, whole blood was collected in 3.8% sodium citrate (9:1, v/v) and was subsequently diluted 50:50 with normal saline. Aggregation was assessed over a 6 minute interval following addition of a submaximal concentration of adenosine diphosphate (ADP, 5 μM: Sigma Corporation, St. Louis, Mo.). Aggregation was then repeated following a ten minute incubation with either 1 μM or 16(R)-HETE or 16(S)-HETE and expressed as the change in impedance as a percentage of the baseline value. Adenosine triphosphate (ATP) release was simultaneously measured from ADP-stimulated platelets in the Chronolog whole blood aggregometer using the Chrono-Lume luminescent agent (firefly luciferin-luciferase). Samples were compared to chemiluminescence obtained from ATP standards following the addition of luciferin-luciferase.

[4] = test system: platelets; assay: ATP release from ADP-stimulated platelets; details: 1 μM, ADP 5 μM, n=3, mean±sem
Excerpt: as §2

[5] = test system: basal human neutrophils; assay: Basal neutrophil adhesion to gelatin matrix
Method: (§3) Venous blood (60-70 ml) was collected from four healthy, normal volunteers into syringes containing heparin (1 U/ml). Polymorphonuclear leukocytes (PMNs) were isolated by a histopaque density gradient technique as previously described in Liu et al., Adhesion, Its role in Inflammatory Disease, Freeman and Co., New York, 1992, pp 189-192. Briefly, blood aliquots (6 ml) were layered over two layers (3 ml) of histopaque 1077 and 1119 in a conical centrifuge tube. The sample was then subjected to centrifugation at 100×g for 30 minutes at room temperature and the top layer, containing the neutrophils, was carefully collected. Hypotonic lysis was used to separate out the red blood cells. The neutrophils were then isolated from the sample by centrifugation (2000×g) and suspended in Hanks balanced salt solution (HBSS) containing 1 mM Ca^+ and 0.8 mM Mg^+ for studies involving arachidonic acid metabolism, and in M199 (with 1% BSA) for neutrophil adhesion assays. Total cells were counted using a hemocytometer and leukocytes were counted after staining with Wright-Giemsa stain. For each experiment, the cell preparations used contain ≧97% neutrophils, having ≧95% viability as determined by a trypan blue exclusion assay.
(§4) Isolated neutrophils were resuspended in M199 containing 1% BSA with a final concentration of 3×10^6 cells per ml. Cells suspensions (1 ml) were incubated with or without a test compound, 16(S)-HETE, 16(R)-HETE, or 20-HETE (concentrations 0.01 to 10 μM) for 10 min and then placed into gelatin-coated wells and further incubated for 20 min at 37° C. The wells were washed three times with 0.5 ml of solution M199 to remove non-adherent cells. The adherent cells were then removed by addition of 0.4 ml of 0.25% trypsin-EDTA in 0.1 M PBS to the gelatin-coated wells and incubation for 10 min at 37° C. The incubates were transferred and the wells were washed with 0.1 ml of M199 solution. The amount of cells in combined solutions was counted. In some experiments, the adhesion of neutrophils was stimulated by addition of 1 U/ml of thrombin to neutrophil suspension immediately prior to the transfer of cells to the wells. Experiments were performed in duplicates for each concentration of HETE. The inhibition of adhesion was expressed as percent of cells remaining in suspension (non-adherent) relative to control. The range of adherent PMNs in control incubations was 6 to 23%. This was increased two-fold in the presence of thrombin.

[6] = test system: thrombin-stimulated human neutrophils; assay: Thrombin-stimulated neutrophil adhesion to gelatin matrix
Method: as §3
as §4, with “In some experiments, the adhesion of neutrophils was stimulated by addition of 1 U/ml of thrombin to neutrophil suspension immediately prior to the transfer of cells to the wells. Experiments were performed in duplicates for each concentration of HETE.” left out, “The range of adherent PMNs in control incubations was 6 to 23%. This was increased two-fold in the presence of thrombin.” left out

[7] = test system: neutrophils in diluted human blood; assay: fMLP-induced neutrophil aggregation in diluted human blood; details: 1 mM [sic] HETE, fMLP 5×10^−7 M, N = 3 to 4
[8] = test system: LTB4 synthesis in neutrophils; assay: Neutrophil LTB4 production stimulated by fMLP; details: 1 μM, 10 min preincubation, fMLP 5×10^−7 M; fMLP alone 92.8±27.1, unstimulated 49.9±24.2; n=4
Method: 16(R)-HETE (0.01-1.0 μM) was preincubated for 10 minutes with the neutrophil suspension (3×10^6/ml) prior to the addition of formyl-methionyl-leucyl-phenylalanine (fMLP). Samples were then incubated for an additional 10 minutes with 5×10^−7M fMLP. All incubations took place at 37° C. Plasma samples for the measurement of LTB4 were collected by centrifugation of the whole blood samples at 1200 rpm for 15 minutes. Samples were stored at […] until analyzed. The plasma was then acidified to pH3 with 1M Hcl. The plasma was then placed on C2 reverse phase columns (Amprep for Amersham Corp., Arlington Heights, Ill.) to extract LTB4. LTB4 was then measured using the Biotrak LTB4 enzyme immunoassay system (Amersham Corp., Arlington Heights, Ill.). All standards and samples were performed in duplicate. Following incubation, all samples were read at 450 nm and the LTB4 concentration in each sample was determined following the generation of a standard curve. LTB4 concentration was expressed as picograms LTB4 per 1000 neutrophils.

[9] = test system: human neutrophils; assay: Agonist activity on human neutrophils; details: concentrations ≦20 μM
[10] = concentrations of one micromolar, four observations per compound

Compound: 5,6,14,15-Dehydro-8,9,11,12-tetrahydro-16(R)-HETE
- Aggregation (percent of inhibition from HETE untreated cells) [1]: 79.4 +/− 12.2%

Compound: CCCC[C@@H](O)CCCCCCCCCCCCCCC(=O)O [5,6,8,9,11,12,14,15-octahydro-16(R)-HETE]
- Aggregation (percent of inhibition from HETE untreated cells) [1]: 122.8 +/− 15.4%

Compound: CCCC[C@@H](O)/C=C\CCCCCCC/C=C\CCCC(=O)O [8,9,11,12-tetrahydro-16(R)-HETE]
- Aggregation (percent of inhibition from HETE untreated cells) [1]: 71.1 +/− 10.3* percent

Compound: CCCCC[C@H](O)/C=C/C=C\C/C=C\C/C=C\CCCC(=O)O [15-HETE]
- inhibition of neutrophil aggregation [1]: neither 20-HETE nor 15-HETE inhibited

Compound: CCCCC(O)/C=C\C/C=C\C/C=C\C/C=C\CCCC(=O)NS(C)(=O)=O [16(R)-HETE sulfonimide, N-methylsulfonyl-16-hydroxyeicosa-5,8,11,14-(Z)-tetraenamide]
- Aggregation (percent of inhibition from HETE untreated cells) [1]: 47.6 +/− 20.5* percent
- inhibition of fMLP-induced neutrophil aggregation [1, 10]: slightly lower activity than 16-HETE (R)

Compound: CCCC[C@@H](O)C=CCC=CCC=CCC=CCCCC(=O)O [16(R)-HETE, 16(R)-hydroxy-5,8,11,14-eicosatetraenoic acid]
- OFR Release (percent of inhibition from HETE untreated cells) [2]: 8.9 ± 5.1%
- ADP-induced platelet aggregation, % of the control value [3]: 85.9±21.4%
- ATP release from ADP-stimulated platelets, % of the control sample [4]: 99.3±0.7%
- Aggregation (percent of inhibition from HETE untreated cells) [1]: 42.0 ± 11.0%
- IC50 ([1]; Homo sapiens, Neutrophil, fMLP 5×10^−7 M, read-out: IC50, inhibition of fMLP-induced neutrophil aggregation): 1200 nM
- inhibition of fMLP-induced neutrophil aggregation [1, 10]: inhibited
- inhibition at 1 µM ([5]; Homo sapiens, Neutrophil, 1 μM, 10 min preincubation, unstimulated neutrophils, gelatin matrix): 73 ± 11%
- inhibition of neutrophil adhesion to gelatin ([5]; preincubation with 10 μM): completely inhibited
- inhibition at 1 µM ([6]; Homo sapiens, Neutrophil, 1 μM, thrombin 1 U/ml, 3×10^6 cells/ml): 50 ± 4%
- Aggregation (percent of inhibition from HETE untreated cells) [7]: 42.0 ± 11.0%
- LTB4 synthesis [8]: 17.0±3.2 pg/1000 neutrophils

Compound: CCCC[C@H](O)/C=C\C/C=C\C/C=C\C/C=C\CCCC(=O)O [16(S)-HETE]
- OFR Release (percent of inhibition from HETE untreated cells) [2]: 5.6 ± 16.7%
- ADP-induced platelet aggregation, % of the control value [3]: 101.3±14.0%
- ATP release from ADP-stimulated platelets, % of the control sample [4]: 108.0±6.8%
- inhibition of fMLP-induced neutrophil aggregation ([1]; concentrations of ≦10 μM): not active
- inhibition of basal neutrophil adhesion ([5]; 1 μM, 10 min preincubation, unstimulated neutrophils, gelatin matrix): 39±8%
- inhibition of thrombin-stimulated neutrophil adhesion ([6]; 1 μM, thrombin 1 U/ml, 3×10^6 cells/ml): 40±14%
- Aggregation (percent of inhibition from HETE untreated cells) [7]: 7.0 ± 3.5%

Compound: O=C(O)CCC/C=C\C/C=C\C/C=C\C/C=C\CCCCCO [20-HETE]
- OFR Release (percent of inhibition from HETE untreated cells) [2]: 3.9 ± 13.4%
- activity in assay of luminol chemiluminescence ([2]; concentrations up to 1 μM): no activity
- inhibition of fMLP-induced neutrophil aggregation ([1]; concentrations of ≦10 μM): not active
- activity in assay of neutrophil aggregation ([1]; concentrations up to 1 μM): no activity
- inhibition of neutrophil aggregation [1]: neither 20-HETE nor 15-HETE inhibited
- agonist activity on human neutrophils [9]: no detectable agonist activity
- activity in assay of neutrophil adhesion ([5]; concentrations up to 1 μM): no activity
- inhibition of neutrophil adhesion, basal conditions ([5]; concentrations ≦10 μM): did not inhibit
- inhibition of neutrophil adhesion, stimulated conditions ([6]; concentrations ≦10 μM): did not inhibit
- Aggregation (percent of inhibition from HETE untreated cells) [7]: 8.1 ± 2.6%

Compound: C(1)-hydroxyl 16-HETE
- Aggregation (percent of inhibition from HETE untreated cells) [1]: 84.6 +/− 11.4%
